Data: publication PMC3938723, “Learning from Host-Defense Peptides: Cationic, Amphipathic Peptoids with Potent Anticancer Activity” (PLoS ONE, 2014)
Non-standard residues stand in square brackets, D forms with d. Residues, ends and D or L forms follow the SMILES beside them. Nspe = C[C@H](NCC(=O)O)c1ccccc1; Nphe = O=C(O)CNCc1ccccc1; Nlys = NCCCCNCC(=O)O

Columns and labels:
[1] = system: OVCAR3 (ovarian cancer); assay: MTS cell viability assay, OVCAR3; format: cell-based; conditions: 72 h
Experimental: (§1) MCF-7, MCF-7/TxT50 and OVCAR-3 (available in ATCC) were kindly provided by Professor Branimir Sikic's lab at Stanford University, and were cultured in McCoy's 5A media (GIBCO) with 10% FBS and antibiotics. Primary dermal fibroblasts were gifts from Lifeline Cell Technology and were cultured <6 passages according to the protocol Lifeline provides. All the cells were cultured in cell incubators (Thermo Scientific) at 37°C with 5% CO2.
(§2) This assay is a colorimetric method for determining the number of viable cells in proliferation. Aliquots of 100 µl media containing 1×10^4 cells were distributed into each well of a 96-well plate (BD Falcon). The following day, when cell density reaches about ∼40% confluency, the cell media were removed and replaced with serial dilutions of peptoid stocks in culturing media. For peptoid dilutions, peptoid stocks were initially diluted in media at 100 µM and then diluted by half in series using a multichannel pipette, and maintained in 100 µl media for each concentration with triple repeats. After peptoid solutions were transferred onto cells in 96-well plates, cells were incubated at 37°C for certain time periods. Then 20 µl of the CellTiter 96 Aqueous Non-Radioactive cell proliferation assay (Promega) reagent which contains a tetrazolium compound, [3-(4,5-dimethylthiazol-2-yl)-5-(3-carboxymethoxyphenyl)-2-(4-sulfophenyl)-2H-tetrazolium, inner salt; MTS(a)], was added to each well and cells were further incubated for 2 h to metabolize. The absorbance of formazan products were measured at 490 nm in a microplate reader (Molecular Devices). Percentage of cell viability = (A -A testblank)/(A control -A blank)×100, where A is the absorbance of the test well and A control the average absorbance of wells with cells not treated with peptoids. A testblank (media, MTS, and diluted peptoids) and A blank (media and MTS) were background absorbances measured in the absence of cells.
(§3) The activity and selectivity of these peptoids against cancer cells were evaluated in vitro. Their cytotoxicity was tested in three cancer cell lines, MCF-7 (human breast cancer), LNCaP (human prostate cancer), and OVCAR-3 (human ovarian cancer). To estimate the selectivity of these peptoids in vitro, hemolytic activities of some peptoids were cited from previously published work (Table 2 **column), and the MRC-5 cell line (human fibroblasts derived from fetal lung tissues) and primary dermal fibroblasts were also tested as normal cell controls. Briefly, cells were treated with peptoids diluted in culturing media for certain time periods, and then cell viability was measured via MTS assays.

[2] = system: MRC-5 (fetal lung fibroblast); assay: MTS cell viability assay, MRC-5; format: cell-based; conditions: 72 h
Experimental: as §1, §2, §3

[3] = Analytical RP-HPLC elution as relative measure of molecular hydrophobicity; format: physicochemical; conditions: percentage of acetonitrile at elution, analytic RP-HPLC, C18 column, linear water/acetonitrile (0.1% trifluoroacetic acid) gradient 5%-95% acetonitrile over 30 min
From the text: Peptoids were synthesized using an ABI 433A peptide synthesizer (Applied Biosystems, Inc.) on Rink amide MBHA resin (EMD Biosciences, Gibbstown, NJ) using the submonomer protocol, [24]. Briefly, the amine on the nascent chain is bromoacetylated or chloroacetylated followed by SN2 displacement of bromide or chloride by a primary amine to form the side chain. Resin-bound peptoids were then exposed to a mixture of trifluoroacetic acid (TFA): triisopropylsilane: water (95∶2.5∶2.5, volume ratio) for 10 minutes to cleave peptoids from the resin. Crude peptoids were purified by reversed-phase high performance liquid chromatography (RP-HPLC) (Waters Corporation) using a C18 column and a linear acetonitrile/water gradient. A final purity >95% as measured by analytical RP-HPLC (Waters Corporation) was achieved, and the identity of each peptoid was confirmed using electrospray ionization mass spectrometry (ESI/MS). Pexiganan was synthesized by standard Fmoc chemistry on an ABI 433A peptide synthesizer ([…]). Unless indicated otherwise, all reagents were purchased from Sigma Aldrich (St. Louis, MO). Among the submonomers used, Nspe was derived from (S)-N-(1-phenylethyl)amine; Npm from benzylamine ([…]); NHis from histamine (2-[4-imidazolyl]ethylamine); NLeu from isobutylamine; NLys from N-tert-butoxycarbonyl-1,4-butanediamine (CNH Technologies, MA). Guanidinylation of NLys was carried out according to the reported procedure. When NHis was used in the peptoid sequence, chloroacetic acid was used. 5(6)-Carboxyfluorescein was used to label the N-terminus of peptoid 1 [28].
Peptoids were utilized herein as a peptidomimetic scaffold to capture the cationic, amphipathic nature of anticancer peptides, as well as to improve molecular stability and to increase chemical diversity. The design of anticancer peptoids were derived from previous antimicrobial peptoids and were further optimized hererin to improve the activity and selectivity of peptoids against anionic membranes, [24], [25]. […] Several novel variants were designed based on peptoid 1 but with different charges, amphipathicity, length, and helicity to change their activity or selectivity. The sequences of these variants, the solvent composition at RP-HPLC elution as a relative measure of molecular hydrophobicity, molecular net charges and their charge-to-length ratio are summarized in Table 1. […] Pexiganan, a clinically-relevant peptide analog of magainin 2 which was developed for topical treatment for diabetic foot infection, and LL-37, the only known human cathelicidin which is a non-selective antimicrobial peptide, were also tested for comparison.

[4] = system: Primary dermal fibroblast; assay: MTS cell viability assay, primary dermal fibroblasts; format: cell-based; conditions: for LC50 Primary dermal fibroblast: 72 h
Experimental: as §1, §2, §3

[5] = system: LNCaP (prostate cancer); assay: MTS cell viability assay, LNCaP; format: cell-based; conditions: 72 h
Experimental: as §2, §3

[6] = system: human red blood cells; conditions: cited from earlier work
From the text: Table 2 Peptoid Cytotoxicity in cancer cell lines and control cells. | column: HC10 (µM) ** || The chain length is believed to influence not only the activity but also modes of action of cationic, amphipathic peptides, [34]. […] Thus we limited the chain length of peptoids to 13 residues at most, and studied 1 9mer which has the same charge-to-length ratio (CTLR) as peptoid ...

[7] = system: MCF-7 (breast cancer); assay: MTS cell viability assay, MCF-7; format: cell-based; conditions: 72 h
Experimental: as §1, §2, §3

[8] = system: MCF-7/TxT50 cells; assay: MTS cell viability in multidrug-resistant MCF-7/TxT50 versus MCF-7; format: cell-based, human; conditions: MTS assay, 72 h treatment
Experimental: as §1
This assay is a colorimetric method for determining the number of viable cells in proliferation. Aliquots of 100 µl media containing 1×10^4 cells were distributed into each well of a 96-well plate (BD Falcon). The following day, when cell density reaches about ∼40% confluency, the cell media were removed and replaced with serial dilutions of peptoid stocks in culturing media. […] The absorbance of formazan products were measured at 490 nm in a microplate reader (Molecular Devices). Percentage of cell viability = (A -A testblank)/(A control -A blank)×100, where A is the absorbance of the test well and A control the average absorbance of wells with cells not treated with peptoids. A testblank (media, MTS, and diluted peptoids) and A blank (media and MTS) were background absorbances measured in the absence of cells. […]
Figure 3 Activity of docetaxel and peptoids in MCF-7 and MCF-7/TxT50 cells. […] Cell viability was measured with MTS assays.

SMILES	LC50 OVCAR3 (ovarian cancer) [1]	LC50 MRC-5 (fetal lung fibroblast) [2]	HPLC elution [3]	LC50 Primary dermal fibroblast [4]	LC50 LNCaP (prostate cancer) [5]	HC10 [6]	LC50 MCF-7 (breast cancer) [7]	selectivity ratio ([4]; LC50 in primary dermal fibroblast divided by LC50 in cancer cells)	activity in MCF-7/TxT50 (MDR1 overexpressing) compared to wild-type MCF-7 [8]
C[C@@H](c1ccccc1)N(CC(N)=O)C(=O)CN(CCCCN)C(=O)CN(C(=O)CN(C(=O)CN(CCCCN)C(=O)CN(C(=O)CN(C(=O)CN(CCCCN)C(=O)CN(C(=O)CN(C(=O)CNCCCCN)[C@@H](C)c1ccccc1)[C@@H](C)c1ccccc1)[C@@H](C)c1ccccc1)[C@@H](C)c1ccccc1)[C@@H](C)c1ccccc1)[C@@H](C)c1ccccc1 [1 11mer, H-(NLys-Nspe-Nspe)3-NLys-Nspe-NH2] (H-[Nlys][Nspe][Nspe][Nlys][Nspe][Nspe][Nlys][Nspe][Nspe][Nlys][Nspe]-NH2)	10 µM	24 µM	63.5 % ACN	19 µM	10 µM	103 µM	11 µM	–	–
C[C@@H](c1ccccc1)N(CC(=O)N(CCCCN)CC(=O)N(CC(=O)N(CC(=O)N(CCCCN)CC(=O)N(CC(=O)N(CC(=O)N(CCCCN)CC(=O)N(CC(=O)N(CC(=O)N(CCCCN)CC(N)=O)[C@@H](C)c1ccccc1)[C@@H](C)c1ccccc1)[C@@H](C)c1ccccc1)[C@@H](C)c1ccccc1)[C@@H](C)c1ccccc1)[C@@H](C)c1ccccc1)C(=O)CN(C(=O)CNCCCCN)[C@@H](C)c1ccccc1 [1 13mer, H-(NLys-Nspe-Nspe)4-NLys-NH2] (H-[Nlys][Nspe][Nspe][Nlys][Nspe][Nspe][Nlys][Nspe][Nspe][Nlys][Nspe][Nspe][Nlys]-NH2)	9 µM	10 µM	62.8 % ACN	14 µM	8 µM	21 µM	8 µM	–	–
NCCCCNCC(=O)N(CC(=O)N(CC(=O)N(CCCCN)CC(=O)N(CC(=O)N(CC(=O)N(CCCCN)CC(=O)N(CC(=O)N(CC(=O)N(CCCCN)CC(=O)N(CC(=O)N(CC(N)=O)Cc1ccccc1)Cc1ccccc1)Cc1ccccc1)Cc1ccccc1)Cc1ccccc1)Cc1ccccc1)Cc1ccccc1)Cc1ccccc1 [1 achiral, H-(NLys-Npm-Npm)4-NH2] (H-[Nlys][Nphe][Nphe][Nlys][Nphe][Nphe][Nlys][Nphe][Nphe][Nlys][Nphe][Nphe]-NH2)	16 µM	30 µM	59.8 % ACN	39 µM	11 µM	183 µM	13 µM	~3	–
C[C@@H](c1ccccc1)N(CC(=O)N(CC(=O)N(CCCCN)CC(=O)N(CC(=O)N(CC(=O)N(CCCCN)CC(=O)N(CC(=O)N(CC(=O)N(CCCCN)CC(=O)N(CC(=O)N(CC(N)=O)Cc1ccccc1)Cc1ccccc1)Cc1ccccc1)Cc1ccccc1)Cc1ccccc1)Cc1ccccc1)Cc1ccccc1)C(=O)CNCCCCN [1 achiral-Nspe2, H-NLys-Nspe-Npm-(NLys-Npm-Npm)3-NH2] (H-[Nlys][Nspe][Nphe][Nlys][Nphe][Nphe][Nlys][Nphe][Nphe][Nlys][Nphe][Nphe]-NH2)	16 µM	22 µM	60.8 % ACN	36 µM	11 µM	160 µM	13 µM	–	–
C[C@@H](c1ccccc1)N(CC(N)=O)C(=O)CN(CCCCN)C(=O)CN(CCCCN)C(=O)CN(C(=O)CN(C(=O)CN(CCCCN)C(=O)CN(C(=O)CN(CCCCN)C(=O)CN(CCCCN)C(=O)CN(C(=O)CN(C(=O)CNCCCCN)[C@@H](C)c1ccccc1)[C@@H](C)c1ccccc1)[C@@H](C)c1ccccc1)[C@@H](C)c1ccccc1)[C@@H](C)c1ccccc1 [1-NLys5,11, H-(NLys-Nspe-Nspe-NLys-NLys-Nspe)2-NH2] (H-[Nlys][Nspe][Nspe][Nlys][Nlys][Nspe][Nlys][Nspe][Nspe][Nlys][Nlys][Nspe]-NH2)	37 µM	41 µM	51.2 % ACN	34 µM	25 µM	>100 µM	31 µM	–	–
C[C@@H](c1ccccc1)N(CC(N)=O)C(=O)CN(C(=O)CN(CCCCN)C(=O)CN(Cc1ccccc1)C(=O)CN(Cc1ccccc1)C(=O)CN(CCCCN)C(=O)CN(C(=O)CN(C(=O)CN(CCCCN)C(=O)CN(Cc1ccccc1)C(=O)CN(Cc1ccccc1)C(=O)CNCCCCN)[C@@H](C)c1ccccc1)[C@@H](C)c1ccccc1)[C@@H](C)c1ccccc1 [1-Npm2,3,8,9, H-(NLys-Npm-Npm-NLys-Nspe-Nspe)2-NH2]	11 µM	18 µM	63.3 % ACN	21 µM	10 µM	80 µM	9 µM	–	–
CC(=O)O[C@@]12CO[C@@H]1C[C@H](O)[C@@]1(C)C(=O)[C@H](O)C3=C(C)[C@@H](OC(=O)[C@H](O)[C@@H](NC(=O)OC(C)(C)C)c4ccccc4)C[C@@](O)([C@@H](OC(=O)c4ccccc4)[C@H]21)C3(C)C [Docetaxel]	–	–	–	–	–	–	–	–	resistant
